Laboratory results taken from ChEMBL document CHEMBL4507276 (2021).

How the values were obtained:
Details in all cases: Compound concentration 1000.0 nM
[1] = molecular target: Serine/threonine-protein kinase RIO1 (Homo sapiens) (UniProt Q9BRS2)
[2] = molecular target: Dual specificity tyrosine-phosphorylation-regulated kinase 1B (Homo sapiens) (UniProt Q9Y463)
[3] = molecular target: Tyrosine-protein kinase Yes (Homo sapiens) (UniProt P07947)
[4] = molecular target: Serine/threonine-protein kinase 32C (Homo sapiens) (UniProt Q86UX6)
Serine/threonine-protein kinase 32C (Homo sapiens), sequence (Q86UX6 whole entry): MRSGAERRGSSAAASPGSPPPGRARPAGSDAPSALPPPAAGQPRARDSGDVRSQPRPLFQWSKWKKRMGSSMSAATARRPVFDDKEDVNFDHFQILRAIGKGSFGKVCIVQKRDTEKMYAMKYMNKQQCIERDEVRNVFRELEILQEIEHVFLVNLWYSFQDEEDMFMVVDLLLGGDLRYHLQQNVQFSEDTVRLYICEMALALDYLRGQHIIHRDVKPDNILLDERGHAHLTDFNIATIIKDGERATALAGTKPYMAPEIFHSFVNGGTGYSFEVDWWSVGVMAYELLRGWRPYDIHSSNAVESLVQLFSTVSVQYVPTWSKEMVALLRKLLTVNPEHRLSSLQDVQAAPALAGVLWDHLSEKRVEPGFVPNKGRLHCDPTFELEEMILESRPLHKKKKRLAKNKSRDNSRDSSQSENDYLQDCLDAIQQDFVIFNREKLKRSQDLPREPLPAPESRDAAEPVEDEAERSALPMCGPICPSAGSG

[5] = molecular target: TGF-beta receptor type-2 (Homo sapiens) (UniProt P37173)
TGF-beta receptor type-2 (Homo sapiens), sequence (P37173 whole entry): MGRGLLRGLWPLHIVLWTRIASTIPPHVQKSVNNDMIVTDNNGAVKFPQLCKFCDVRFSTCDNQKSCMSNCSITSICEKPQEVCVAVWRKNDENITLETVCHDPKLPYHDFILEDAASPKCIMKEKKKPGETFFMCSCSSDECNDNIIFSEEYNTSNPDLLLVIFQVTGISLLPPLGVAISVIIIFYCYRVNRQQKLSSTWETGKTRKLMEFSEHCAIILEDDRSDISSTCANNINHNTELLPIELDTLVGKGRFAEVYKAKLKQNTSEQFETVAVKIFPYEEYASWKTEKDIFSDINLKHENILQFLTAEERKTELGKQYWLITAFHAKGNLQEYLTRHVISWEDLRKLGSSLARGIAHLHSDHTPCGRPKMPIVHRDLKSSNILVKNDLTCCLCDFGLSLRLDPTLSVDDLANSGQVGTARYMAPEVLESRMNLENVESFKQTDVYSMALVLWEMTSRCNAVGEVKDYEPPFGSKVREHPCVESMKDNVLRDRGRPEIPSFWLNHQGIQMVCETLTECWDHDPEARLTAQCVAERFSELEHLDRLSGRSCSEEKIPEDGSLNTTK

[6] = molecular target: Cyclin-dependent kinase 7 (Homo sapiens) (UniProt P50613)
Cyclin-dependent kinase 7 (Homo sapiens), sequence (P50613 whole entry): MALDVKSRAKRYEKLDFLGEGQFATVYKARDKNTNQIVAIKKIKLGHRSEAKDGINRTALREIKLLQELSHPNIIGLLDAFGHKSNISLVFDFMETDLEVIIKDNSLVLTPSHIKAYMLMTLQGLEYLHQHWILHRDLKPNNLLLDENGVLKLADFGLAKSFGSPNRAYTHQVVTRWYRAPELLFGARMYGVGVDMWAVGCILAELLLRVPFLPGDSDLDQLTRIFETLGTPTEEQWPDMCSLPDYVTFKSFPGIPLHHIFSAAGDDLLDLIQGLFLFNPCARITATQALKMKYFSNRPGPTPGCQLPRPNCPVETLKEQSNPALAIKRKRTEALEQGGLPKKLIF

[7] = molecular target: Ribosomal protein S6 kinase alpha-4 (Homo sapiens) (UniProt O75676)
[8] = molecular target: Phosphatidylinositol 4,5-bisphosphate 3-kinase catalytic subunit gamma isoform (Homo sapiens) (UniProt P48736)
[9] = molecular target: Cyclin-dependent kinase 11A (Homo sapiens) (UniProt Q9UQ88)
Cyclin-dependent kinase 11A (Homo sapiens), sequence (Q9UQ88 whole entry): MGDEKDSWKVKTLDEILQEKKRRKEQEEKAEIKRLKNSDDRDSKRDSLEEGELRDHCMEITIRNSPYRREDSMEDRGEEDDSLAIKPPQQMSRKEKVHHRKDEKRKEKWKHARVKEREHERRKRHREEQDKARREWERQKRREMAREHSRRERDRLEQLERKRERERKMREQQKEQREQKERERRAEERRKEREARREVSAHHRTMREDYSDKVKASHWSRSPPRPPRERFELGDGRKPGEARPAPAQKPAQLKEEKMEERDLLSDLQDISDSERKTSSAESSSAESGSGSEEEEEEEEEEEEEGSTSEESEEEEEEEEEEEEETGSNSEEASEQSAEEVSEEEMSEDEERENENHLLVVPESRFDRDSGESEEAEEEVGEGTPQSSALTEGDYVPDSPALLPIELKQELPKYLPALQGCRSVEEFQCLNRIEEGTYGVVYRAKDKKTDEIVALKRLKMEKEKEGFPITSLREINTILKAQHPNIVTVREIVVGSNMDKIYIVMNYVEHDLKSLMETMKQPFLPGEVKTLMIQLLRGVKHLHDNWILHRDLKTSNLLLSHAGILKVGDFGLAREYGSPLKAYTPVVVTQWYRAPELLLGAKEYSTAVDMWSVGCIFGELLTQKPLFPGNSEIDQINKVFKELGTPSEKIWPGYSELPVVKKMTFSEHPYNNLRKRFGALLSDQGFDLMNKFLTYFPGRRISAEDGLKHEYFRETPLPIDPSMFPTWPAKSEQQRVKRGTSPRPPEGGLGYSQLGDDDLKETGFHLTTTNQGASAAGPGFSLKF

[10] = molecular target: Non-receptor tyrosine-protein kinase TYK2 (Homo sapiens) (UniProt P29597)
Non-receptor tyrosine-protein kinase TYK2 (Homo sapiens), sequence (P29597 whole entry): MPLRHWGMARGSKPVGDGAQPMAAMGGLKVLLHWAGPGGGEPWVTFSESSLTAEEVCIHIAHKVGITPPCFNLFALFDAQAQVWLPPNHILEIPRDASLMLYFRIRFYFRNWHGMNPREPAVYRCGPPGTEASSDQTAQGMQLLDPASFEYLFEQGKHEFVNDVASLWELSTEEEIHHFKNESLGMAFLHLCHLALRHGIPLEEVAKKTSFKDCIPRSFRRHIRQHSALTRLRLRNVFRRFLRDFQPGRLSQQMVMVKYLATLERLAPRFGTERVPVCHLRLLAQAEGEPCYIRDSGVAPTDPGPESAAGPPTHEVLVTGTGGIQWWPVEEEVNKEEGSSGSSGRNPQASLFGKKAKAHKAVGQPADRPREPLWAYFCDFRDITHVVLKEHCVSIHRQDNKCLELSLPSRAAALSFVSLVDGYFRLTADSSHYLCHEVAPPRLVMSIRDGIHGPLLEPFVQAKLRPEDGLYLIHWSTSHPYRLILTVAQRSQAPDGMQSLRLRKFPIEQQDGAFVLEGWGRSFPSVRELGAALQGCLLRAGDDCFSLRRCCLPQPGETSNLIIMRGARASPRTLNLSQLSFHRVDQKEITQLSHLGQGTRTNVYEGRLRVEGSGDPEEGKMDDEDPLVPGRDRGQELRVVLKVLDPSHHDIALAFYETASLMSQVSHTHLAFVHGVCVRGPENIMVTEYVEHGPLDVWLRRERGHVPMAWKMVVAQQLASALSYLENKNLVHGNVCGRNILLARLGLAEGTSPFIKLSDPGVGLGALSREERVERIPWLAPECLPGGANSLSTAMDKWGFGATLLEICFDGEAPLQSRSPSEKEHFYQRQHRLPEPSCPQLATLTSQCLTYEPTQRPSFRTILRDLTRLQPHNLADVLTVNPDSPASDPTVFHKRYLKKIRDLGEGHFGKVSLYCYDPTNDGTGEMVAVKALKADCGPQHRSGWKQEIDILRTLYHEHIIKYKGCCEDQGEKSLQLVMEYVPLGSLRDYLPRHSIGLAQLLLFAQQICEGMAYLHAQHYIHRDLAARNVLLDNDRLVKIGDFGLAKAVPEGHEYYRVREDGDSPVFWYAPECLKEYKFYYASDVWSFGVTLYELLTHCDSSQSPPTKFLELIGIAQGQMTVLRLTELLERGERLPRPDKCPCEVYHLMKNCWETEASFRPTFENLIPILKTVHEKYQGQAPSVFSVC

[11] = molecular target: Wee1-like protein kinase (Homo sapiens) (UniProt P30291)
Wee1-like protein kinase (Homo sapiens), sequence (P30291 whole entry, looked up): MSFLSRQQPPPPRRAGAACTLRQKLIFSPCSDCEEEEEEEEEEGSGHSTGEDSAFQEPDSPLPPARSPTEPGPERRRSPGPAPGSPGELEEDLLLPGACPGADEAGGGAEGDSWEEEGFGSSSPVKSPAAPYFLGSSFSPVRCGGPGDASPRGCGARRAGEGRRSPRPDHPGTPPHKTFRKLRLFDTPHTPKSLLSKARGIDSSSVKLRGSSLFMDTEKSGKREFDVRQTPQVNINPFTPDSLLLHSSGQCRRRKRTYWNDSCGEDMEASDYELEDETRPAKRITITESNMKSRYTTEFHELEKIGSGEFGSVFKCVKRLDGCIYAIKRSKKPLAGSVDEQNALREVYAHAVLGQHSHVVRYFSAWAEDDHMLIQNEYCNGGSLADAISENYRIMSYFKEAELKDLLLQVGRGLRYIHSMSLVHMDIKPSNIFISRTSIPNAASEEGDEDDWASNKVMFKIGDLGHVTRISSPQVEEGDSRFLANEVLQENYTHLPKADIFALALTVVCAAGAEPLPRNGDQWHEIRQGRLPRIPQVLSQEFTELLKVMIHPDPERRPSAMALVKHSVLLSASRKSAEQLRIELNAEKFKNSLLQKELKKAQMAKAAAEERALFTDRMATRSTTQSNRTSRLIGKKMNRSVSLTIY

[12] = molecular target: T1, Ephrin type-B receptor 4 (Homo sapiens) (UniProt P54760)
T1 sequence (whole entry): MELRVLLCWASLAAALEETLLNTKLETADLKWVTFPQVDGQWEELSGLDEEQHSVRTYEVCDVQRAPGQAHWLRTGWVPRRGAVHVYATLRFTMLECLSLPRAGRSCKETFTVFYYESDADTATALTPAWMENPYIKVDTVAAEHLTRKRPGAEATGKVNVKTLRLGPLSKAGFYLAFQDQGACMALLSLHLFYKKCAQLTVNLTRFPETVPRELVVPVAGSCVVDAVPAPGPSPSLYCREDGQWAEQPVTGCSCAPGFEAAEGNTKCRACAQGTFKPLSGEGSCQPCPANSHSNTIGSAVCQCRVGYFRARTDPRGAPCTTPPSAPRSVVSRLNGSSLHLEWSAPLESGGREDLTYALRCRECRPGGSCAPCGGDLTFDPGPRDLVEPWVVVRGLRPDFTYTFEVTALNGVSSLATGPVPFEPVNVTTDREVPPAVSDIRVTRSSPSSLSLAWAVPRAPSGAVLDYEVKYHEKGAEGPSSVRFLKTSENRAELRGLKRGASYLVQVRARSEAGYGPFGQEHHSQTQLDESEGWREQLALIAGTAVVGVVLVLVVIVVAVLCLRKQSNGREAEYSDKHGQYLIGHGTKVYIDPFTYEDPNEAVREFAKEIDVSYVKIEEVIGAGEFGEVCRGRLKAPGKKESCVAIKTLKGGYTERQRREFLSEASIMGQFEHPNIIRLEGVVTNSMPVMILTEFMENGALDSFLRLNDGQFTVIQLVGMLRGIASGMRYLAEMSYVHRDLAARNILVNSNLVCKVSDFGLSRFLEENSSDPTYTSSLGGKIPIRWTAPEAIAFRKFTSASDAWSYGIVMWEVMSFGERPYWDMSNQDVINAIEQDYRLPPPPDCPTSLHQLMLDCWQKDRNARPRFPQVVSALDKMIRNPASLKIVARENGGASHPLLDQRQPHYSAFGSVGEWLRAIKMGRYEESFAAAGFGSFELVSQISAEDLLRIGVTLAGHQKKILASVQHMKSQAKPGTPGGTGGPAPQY

[13] = molecular target: T2, cGMP-dependent protein kinase 1 (Homo sapiens) (UniProt Q13976)
T2 sequence (whole entry): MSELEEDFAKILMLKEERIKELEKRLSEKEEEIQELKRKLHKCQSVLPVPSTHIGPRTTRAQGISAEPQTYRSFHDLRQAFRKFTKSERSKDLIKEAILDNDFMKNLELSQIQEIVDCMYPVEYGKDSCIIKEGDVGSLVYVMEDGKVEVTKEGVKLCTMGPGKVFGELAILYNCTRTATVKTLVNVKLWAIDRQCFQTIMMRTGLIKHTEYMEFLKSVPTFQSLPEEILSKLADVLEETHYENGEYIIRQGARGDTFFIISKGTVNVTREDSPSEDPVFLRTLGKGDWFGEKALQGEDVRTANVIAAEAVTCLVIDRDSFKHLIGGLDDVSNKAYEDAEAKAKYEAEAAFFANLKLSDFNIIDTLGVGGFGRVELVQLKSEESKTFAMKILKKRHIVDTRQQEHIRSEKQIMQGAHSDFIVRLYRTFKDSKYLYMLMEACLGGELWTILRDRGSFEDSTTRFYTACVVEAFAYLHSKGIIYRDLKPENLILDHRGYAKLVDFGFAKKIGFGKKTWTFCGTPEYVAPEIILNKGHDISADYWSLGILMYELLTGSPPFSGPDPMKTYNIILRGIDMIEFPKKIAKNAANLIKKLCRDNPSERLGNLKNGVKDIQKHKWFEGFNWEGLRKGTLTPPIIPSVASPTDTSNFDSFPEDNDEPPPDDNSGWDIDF

[14] = system: Epidermal growth factor receptor (Homo sapiens), P00533 [UNDEFINED MUTATION]
[15] = molecular target: Cyclin-dependent kinase 4 (Homo sapiens) (UniProt P11802)
Cyclin-dependent kinase 4 (Homo sapiens), sequence (P11802 whole entry): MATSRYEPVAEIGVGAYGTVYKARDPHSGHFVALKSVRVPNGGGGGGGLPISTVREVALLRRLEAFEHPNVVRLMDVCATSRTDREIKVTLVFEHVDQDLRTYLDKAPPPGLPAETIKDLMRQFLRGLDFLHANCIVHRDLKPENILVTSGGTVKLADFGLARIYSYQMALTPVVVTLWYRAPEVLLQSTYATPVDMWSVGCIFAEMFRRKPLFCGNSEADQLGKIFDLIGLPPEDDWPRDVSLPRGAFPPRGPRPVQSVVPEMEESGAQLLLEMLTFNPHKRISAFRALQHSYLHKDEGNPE

Measured: residual activity

Tyrosine-protein kinase Yes (Homo sapiens), sequence (P07947 2-543 limits assumed): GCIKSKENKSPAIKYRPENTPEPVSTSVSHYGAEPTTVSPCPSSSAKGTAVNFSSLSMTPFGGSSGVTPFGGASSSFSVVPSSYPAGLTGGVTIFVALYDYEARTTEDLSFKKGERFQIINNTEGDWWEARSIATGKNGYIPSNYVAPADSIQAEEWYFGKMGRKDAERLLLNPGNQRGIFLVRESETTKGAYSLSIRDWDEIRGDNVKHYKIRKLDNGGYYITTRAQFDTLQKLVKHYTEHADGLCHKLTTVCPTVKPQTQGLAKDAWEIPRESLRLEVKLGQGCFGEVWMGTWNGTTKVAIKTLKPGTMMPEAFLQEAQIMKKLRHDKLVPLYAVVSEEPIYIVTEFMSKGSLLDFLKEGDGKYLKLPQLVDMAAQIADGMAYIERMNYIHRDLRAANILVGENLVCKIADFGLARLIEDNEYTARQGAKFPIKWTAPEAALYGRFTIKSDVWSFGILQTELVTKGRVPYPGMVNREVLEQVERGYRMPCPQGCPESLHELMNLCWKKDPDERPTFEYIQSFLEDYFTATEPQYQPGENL

CN(C)C(=O)Cn1cc(-c2nc(C3(c4ccc(-c5cnc(N)nc5)cc4)CC3)no2)cn1 [BI 0153]
inactive: [1] 100% | [2] 66% | [3] 87% | [4] 100% | [5] 100% | [6] 72% | [7] 86% | [8] 85% | [9] 89% | [10] 90% | [11] 87% | [12] 100% | [13] 89% | [14] 80% | [15] 67%

CN(C)C(=O)Cn1cc(-c2nc([C@@](C)(c3ccc(-c4cnc(N)nc4)cc3)C3CC3)no2)cn1 [BI 665915]
inactive: [1] 100% | [2] 98% | [3] 94% | [4] 88% | [5] 88% | [6] 59% | [7] 72% | [8] 72% | [9] 100% | [10] 65% | [11] 94% | [12] 100% | [13] 100% | [14] 100% | [15] 94%
